In US20230090255A1, “MAGL INHIBITOR, PREPARATION METHOD THEREFOR AND USE THEREOF” (LUNAN PHARMACEUTICAL GROUP CORPORATION, priority 2019, published 2023):

Columns and labels:
[1] = tested on: mice pain response induced by hot plate; experiment: Mice pain response induced by hot plate; type: in vivo, ICR mice; conditions: for Pain threshold: hot plate 55°C
Method: Female ICR mice (20±2) g were placed on an intelligent hot plate at 55±0.5° C., and latency (s) that the plantar of mice touched the hot plate until the occurrence of a hind paws licking response served as a pain threshold indicator; the mice (response latency <5 s or >30 s) or jumping mice were eliminated.
Grouping and administration were the same as those in Example 40.
The mice were continuously administered intragastrically for 7 consecutive days; the pain threshold of each group of mice was respectively determined once at 30, 60, 90 and 120 min after the final administration; the pain threshold greater than 60 s was calculated by 60 s.

[2] = tested on: mice with inflammatory pain; experiment: Pain threshold of mice with inflammatory pain (complete Freund's adjuvant); type: in vivo, SD mice; conditions: for Pain threshold: complete Freund's adjuvant paw model
Method: […] (180±20) g were injected with a complete Freund’s adjuvant (50 µL/piece) at the right rear plantar of mice, and mice in the control group were injected with the corresponding volume of 0.5% sodium carboxymethylcellulose to establish a paw edema inflammatory pain model. After modeling, the mice were administered for 7 d continuously, and administered intragastrically once per day. Pain thresholds (s) of the mice were respectively determined on the 1st, 3rd and 7th day before administration and after modeling at different periods of time.
Grouping and administration were the same as those of Example 40.

ulcerative colitis mice = experiment: Mice ulcerative colitis (DSS); type: in vivo, BALB/c mice; conditions: for Total times of hematochezia within the four periods / Colon length / IL-1 content: DSS mice; for Colon length: four periods; for IL-1 content: serum, ELISA
From the text: Healthy male SPF-level BALB/c mice (8-week old and body mass: (20±2) g).
Modeling: the mice were randomly divided into […] at the end of the quarantine, 10 pieces for each group. The mice in the normal group drank normal water freely, and the rest groups of mice drank 1.0%-1.5% DSS solution freely for modeling, 7 d later after modeling, the mice in the modeling group drank normal water freely for 7 d, and 14 d served as a modeling period for four continuous periods, and the mice in the modeling group were administered at the same time.
End point of the experiment: experimental administration was performed for four periods, and dissection was performed on the 3rd and 4th day of the recovery period of the 4th period.
Test indicators: the mice were weighed twice a week after the beginning of the administration; diarrhea and hematochezia of the mice were observed, and times of hematochezia were recorded.
At the end of the experiment, the mice were dissected and weighed, and narcotized to take blood, then serum was preserved at -80° C. Spleen was taken and weighed to calculate the spleen index. The content of IL-1β in serum was detected via ELISA. Colorectum was cut and taken to measure the length of colorectum, then immobilized by formaldehyde and dyed by HE to detect the pathological change.

[3] = tested on: reserpine-induced mice migraine; experiment: Reserpine-induced mice migraine; type: in vivo, ICR mice; conditions: for Blood coagulation time: reserpine 0.2 mg/kg sc mice, 1 h after final administration; for brain tissue 5-HT / Times of tail suspension (struggling times within 2 min): reserpine mice; for Times of tail suspension (struggling times within 2 min): 9th day
Method: The mice in the blank control group and model group were administered intragastrically via a solvent from the 5th day after modeling, and the rest groups of mice were respectively administered corresponding medicaments and doses for intragastric administration for 10 consecutive days; 1 h later after the final administration, the mice were weighed; blood was taken at inner canthus to detect blood coagulation time; whole blood was taken, and cerebrum was taken on an ice and preserved at -20° C. for the subsequent experiment.
Behavioral test: tail suspension activity was performed; the position 1 cm away from the tail of the mice was glued by an adhesive tape on the 9th day of the test, and the adhesive tape was penetrated by a steel needle, and hung in a dark box such that the mice were hung upside down; then the mice struggling times (total number of overturning from hanging) within 2 min were observed.
The mice were weighed 1 h later after the final administration; blood of inner canthus was taken via a capillary to detect the blood coagulation time.
Blood was taken to detect the content of 5-HT in serum via high-performance liquid chromatography. Cerebrum was taken on an ice and precooled and cleaned slightly with 0.5% sodium carboxymethylcellulose, and then sucked dry with a filter paper, and placed into a cryogenic tube, and preserved at -20° C. for further use, then the content of 5-HT in brain tissues was detected by high performance liquid chromatography.
5-HT test method: a sample was precipitated with 10% perchloric acid solution according to 1:1, and then centrifuged to take supernatant for test. Chromatographic conditions: the chromatographic column is a SHIMADZU VP-ODS C18 column (250*4.6 mm, 5 um), the mobile phase is a methanol-0.01 mol/L potassium acetate buffer solution (10:90, V/V, PH is adjusted to 4.00 with 0.2 mol/L citric acid) for gradient elution; the column temperature is 25° C., flow rate is 1.00 ml/min and test wavelength is 275 nm.

O=C(Nc1cccc(Cl)c1)C1CCN(C(=O)c2cccc(O)c2)CC1 [MAGLZ-II-11]
pain thresholds of the thermal-stimulus mice, in words ([1]; compared with the model group): significantly extend
Pain threshold ([1]; high dose 30 mg/kg ig 7 d, 30 min after final administration): 41.43 ± 5.15 s
Pain threshold ([1]; high dose 30 mg/kg ig 7 d, 60 min): 46.16 ± 6.63 s
Pain threshold ([1]; high dose 30 mg/kg ig 7 d, 90 min): 47.22 ± 5.98 s
Pain threshold ([1]; high dose 30 mg/kg ig 7 d, 120 min): 45.49 ± 6.31 s
Pain threshold ([1]; low dose 7.5 mg/kg ig 7 d, 30 min after final administration): 37.92 ± 8.83 s
Pain threshold ([1]; low dose 7.5 mg/kg ig 7 d, 60 min): 44.14 ± 7.56 s
Pain threshold ([1]; low dose 7.5 mg/kg ig 7 d, 90 min): 45.93 ± 8.38 s
Pain threshold ([1]; low dose 7.5 mg/kg ig 7 d, 120 min): 43.80 ± 6.12 s
Pain threshold ([1]; middle dose 15 mg/kg ig 7 d, 30 min after final administration): 40.33 ± 8.25 s
Pain threshold ([1]; middle dose 15 mg/kg ig 7 d, 60 min): 44.87 ± 5.67 s
Pain threshold ([1]; middle dose 15 mg/kg ig 7 d, 90 min): 46.41 ± 5.36 s
Pain threshold ([1]; middle dose 15 mg/kg ig 7 d, 120 min): 43.44 ± 5.91 s
pain threshold of the mice with inflammatory pain, in words ([2]; compared with the model group): significantly extend
Pain threshold ([2]; high dose 30 mg/kg ig once per day, 0 d): 12.88 ± 2.27 s
Pain threshold ([2]; high dose 30 mg/kg ig once per day, 1 d): 7.99±0.90^∗∗∗ s
Pain threshold ([2]; high dose 30 mg/kg ig once per day, 3 d): 9.88±1.34^∗∗∗ s
Pain threshold ([2]; high dose 30 mg/kg ig once per day, 7 d): 11.26±1.82^∗∗∗ s
Pain threshold ([2]; low dose 7.5 mg/kg ig once per day, 0 d): 12.94 ± 2.41 s
Pain threshold ([2]; low dose 7.5 mg/kg ig once per day, 1 d): 7.55±1.29^∗∗∗ s
Pain threshold ([2]; low dose 7.5 mg/kg ig once per day, 3 d): 9.00±0.73^∗∗∗ s
Pain threshold ([2]; low dose 7.5 mg/kg ig once per day, 7 d): 10.26±1.08^∗∗∗ s
Pain threshold ([2]; middle dose 15 mg/kg ig once per day, 0 d): 12.80 ± 2.27 s
Pain threshold ([2]; middle dose 15 mg/kg ig once per day, 1 d): 7.73±1.10^∗∗∗ s
Pain threshold ([2]; middle dose 15 mg/kg ig once per day, 3 d): 9.47±0.79^∗∗∗ s
Pain threshold ([2]; middle dose 15 mg/kg ig once per day, 7 d): 10.93±1.62^∗∗∗ s
Total times of hematochezia within the four periods (ulcerative colitis mice; high dose 30 mg/kg ig): 24.80±5.43
Colon length (ulcerative colitis mice; high dose 30 mg/kg ig): 7.68±0.75 cm
IL-1 content (ulcerative colitis mice; high dose 30 mg/kg ig): 33.83 ± 7.14 pg/mL
Total times of hematochezia within the four periods (ulcerative colitis mice; low dose 7.5 mg/kg ig): 32.00±4.94
Colon length (ulcerative colitis mice; low dose 7.5 mg/kg ig): 6.88±0.89 cm
IL-1 content (ulcerative colitis mice; low dose 7.5 mg/kg ig): 44.57 ± 10.32 pg/mL
Total times of hematochezia within the four periods (ulcerative colitis mice; middle dose 15 mg/kg ig): 27.20±5.39
Colon length (ulcerative colitis mice; middle dose 15 mg/kg ig): 7.26±0.67 cm
IL-1 content (ulcerative colitis mice; middle dose 15 mg/kg ig): 41.40 ± 9.50 pg/mL
IL-1 content, in words (ulcerative colitis mice; compared with the model group): decrease
colon length, in words (ulcerative colitis mice; compared with the model group): significantly increase
total times of hematochezia, in words (ulcerative colitis mice; compared with the model group): reduce
blood coagulation time, in words ([3]; compared with the model group): significantly extend
level of 5-HT in the brain tissue, in words ([3]; compared with the model group): significantly increase
times of the tail suspension activity, in words ([3]; compared with the model group): significantly increase
Blood coagulation time ([3]; high dose 30 mg/kg ig 10 d): 336.88±33.09 S
Blood coagulation time ([3]; low dose 7.5 mg/kg ig 10 d): 222.5±35.52 S
Blood coagulation time ([3]; middle dose 15 mg/kg ig 10 d): 326.88±45.9 S
brain tissue 5-HT ([3]; high dose 30 mg/kg ig 10 d): 3.63 ± 5.34 nmol/g
Times of tail suspension (struggling times within 2 min) ([3]; high dose 30 mg/kg ig): 23.00±3.59
brain tissue 5-HT ([3]; low dose 7.5 mg/kg ig 10 d): 1.54 ± 0.27 nmol/g
Times of tail suspension (struggling times within 2 min) ([3]; low dose 7.5 mg/kg ig): 14.13±1.89
brain tissue 5-HT ([3]; middle dose 15 mg/kg ig 10 d): 2.10 ± 0.22 nmol/g
Times of tail suspension (struggling times within 2 min) ([3]; middle dose 15 mg/kg ig): 16.13±1.73
